{"source": "patent US10183915B2", "about": "“Axially chiral isomers, and preparation methods therefor and pharmaceutical uses thereof” (MEDSHINE DISCOVERY INC., priority 2015, dated 2019)", "key": {"[1]": {"experiment": "Stability of solid compounds in ambient temperature (15° C., nitrogen cabinet, dark; SFC chiral purity)", "format": "physicochemical", "details": "for Enantiomer Excess of the Compound: solid", "protocol": "Test 2: Evaluation of the Stability of Solid Compounds in Ambient Temperature.\n20 mg of test compound was placed into 5 mL brown transparent sealed container with stopper and stoned in the nitrogen cabinet (15° C.) in the dark. After the preset storage time, about 2 mg of test compound was accurately weighed, added into ethanol to prepare 1 mg/mL ethanol solution. The purity and chiral purity of the compound was detected by high performance liquid chromatography (HPLC) or LC-MS (LCMS) and supercritical fluid chromatography (SFC)."}, "[2]": {"experiment": "Stability of compounds in ethanol solutions (heated; SFC chiral purity)", "format": "physicochemical", "details": "for Enantiomer Excess of Compound: ethanol solution", "text": "Test 3: Evaluation of the Stability of Compounds in Ethanol Solutions.\n(§1) An appropriate amount of test compound was accurately weighed, added into ethanol to obtain an ethanol solution. The ethanol solution of the compound was stirred in a heated oil bath. At the end of the test, the purity and chiral purity of the compound was detected by high performance liquid chromatography (HPLC) or LC-MS (LCMS) and supercritical fluid chromatography (SFC)."}, "[3]": {"experiment": "Stability of compounds in DMSO solutions (heated; SFC chiral purity)", "format": "physicochemical", "details": "for Enantiomer Excess of Compound: DMSO solution", "protocol": "Example 4: Evaluation of the Stability of Compounds in DMSO Solutions\nas §1, with “DMSO” for “ethanol”, “a DMSO” for “an ethanol”, “test, a sample amount of the DMSO solution was diluted with ethanol and” for “test,”"}, "[4]": {"experiment": "Stability of compounds in human plasma", "format": "in vitro ADME", "protocol": "Test 5: Evaluation of the Stability of Compounds in Rat Plasma and Human Plasma\n2. Experimental Procedures and Methods • 2.1 Prior to the experiment, the frozen plasma stored at −40° C. was thawed at room temperature and incubated in a 37° C. water bath for 5-10 min; centrifuged at 4000 rpm for 5 min, to remove impurities and lipids in the plasma. Measured the value of pH, if required, adjusted it to 7.4±0.1. • 2.2 Prepared 400 μM intermediate solution by diluting 4 μL of the working solution (10 mM) with 96 μL DMSO. • 2.3 Preparation of incubation samples: Remove 3 μL of intermediate solution (400 μM) to mix with 597 μL of blank plasma to achieve 2 μM of final concentration. Incubate each time point samples (0 min, 10 min, 30 min, 60 min, 120 min, in duplicate) at 37° C. in water bath. • 2.4 An aliquot of 100 μL samples of the final spiked plasma for each time point were removed to sample collected plates, added 400 μL of stop solution (200 ng/mL Tolbutamide plus 20 ng/mL Buspirone in 50% ACN/MeOH) to precipitate protein. Mixed thoroughly. • 2.5 Centrifuged each plate at 4,000 rpm for 20 min. Transfered an aliquot of supernatant (100 μL) from each well to sample plate and mixed with 200 μL ultra pure water. Shaked the plate at 800 rpm for about 10 min before submitting to LC-MS/MS analysis. 3. Experimental Data Analysis\nThe ratio of the peak area to the internal standard peak area was used to assess the decrease of the test compound to be measured. The % remaining of the test compound after incubation in plasma was calculated using following equation: % Remaining=100×(PAR at appointed incubation time/PAR at T0 time)\nwherein PAR is the peak area ratio of analyte versus internal standard (IS)\nThe appointed incubation time points are: 0 min, 10 min, 30 min, 60 min, 120 min; T0: Samples prior to incubation."}, "[5]": {"experiment": "In vivo pharmacokinetic study in male Sprague-Dawley rats (IV and PO)", "set-up": "species or system Sprague-Dawley rat", "details": "for MRT inf: read-out: MRT0-inf", "protocol": "Test 6: In Vivo Pharmacokinetic Study of the Test Compounds in Rats\nTo study the pharmacokinetic behavior of the compounds in rats and to evaluate their pharmacokinetic characteristics, their concentrations in plasma were determined by LC/MS/MS.\nAppropriate amount of sample was added to a certain amount of pure water, the pH were adjusted to 7-8, to prepare to be 1 mg/mL (filtered and clarified) and 2 mg/mL (with a few particles of suspension) for IV and PO administration. • 2.4 Administration • 18 male SD rats were randomly assigned to 6 treatment groups, 3 rats in each group. Male rats were administrated IV and PO respectively after fasting overnight. The IV dosage was 2 mg/kg, the dose volume was 2 mL/kg, the PO dosage was 10 mg/kg, and the dose volume was 5 mL/kg. 3. Experimental Procedure\nFor IV group, 250 μL blood samples were collected before administration, and 0.083, 0.25, 0.5, 1, 2, 4, 8, 24 hours after administration, and placed in K2-EDTA anticoagulant tube, centrifuged at 3000 rpm for 15 minutes, plasma was separated, stored at −80° C. For PO Group, blood samples were collected before administration, and 0.25, 0.5, 1, 2, 4, 8, 24 hours after administration, and the other operations were the same as group IV. The content of the test compounds in the plasma of rats after administration of IV and PO were determined by LC/MS/MS method. The linear range of the assay was 6.00-18000 nM, and the lower limit of quantification was 6 nM; the plasma samples were analyzed by pretreatment with precipitated proteins."}, "[6]": {"details": "male SD rats, IV 2 mpk, 2 mg/kg"}, "[7]": {"details": "male, Sprague-Dawley, rat, plasma, iv, 2 mg/kg, male SD rats, IV 2 mpk"}, "[8]": {"details": "male, Sprague-Dawley, rat, plasma, po, 10 mg/kg, male SD rats, PO 10 mpk"}}, "note": "Like-named read-outs stand apart in the source and are kept apart here."}
{"smiles": "O=C(O)CSc1nnc(Br)n1-c1ccc(C2CC2)c2ccccc12", "note": "(single isomer, unassigned) [(+)-Lesinurad]", "values": [{"measurement": "Enantiomer Excess of the Compound", "setting": "[1]; storing time 0 day", "result": 95.9, "unit": "%"}, {"measurement": "Enantiomer Excess of the Compound", "setting": "[1]; storing time >80 days", "result": "Unchanged"}, {"measurement": "Stability of the solid powder (SFC purity)", "setting": "[1]; storing over 80 days", "result": "very stable"}, {"measurement": "Enantiomer Excess of Compound", "setting": "[2]; 37° C., 3 days", "result": "Unchanged"}, {"measurement": "Enantiomer Excess of Compound", "setting": "[2]; 70° C., 3 days", "result": "Unchanged"}, {"measurement": "Enantiomer Excess of Compound", "setting": "[2]; heating time 0 day", "result": 95.9, "unit": "%"}, {"measurement": "Stability in ethanol solutions (SFC purity)", "setting": "[2]; heating to 37° C. and up to 70° C.", "result": "very stable"}, {"measurement": "Enantiomer Excess of Compound", "setting": "[3]; 80° C., 0 h", "result": 95.9, "unit": "%"}, {"measurement": "Enantiomer Excess of Compound", "setting": "[3]; 80° C., 2 × 24 h", "result": "Unchanged"}, {"measurement": "Enantiomer Excess of Compound", "setting": "[3]; 80° C., 4 × 24 h", "result": "Unchanged"}, {"measurement": "Enantiomer Excess of Compound", "setting": "[3]; 80° C., 2 h", "result": "Unchanged"}, {"measurement": "Enantiomer Excess of Compound", "setting": "[3]; 80° C., 4 h", "result": "Unchanged"}, {"measurement": "Enantiomer Excess of Compound", "setting": "[3]; 80° C., 8 h", "result": "Unchanged"}, {"measurement": "Enantiomer Excess of Compound", "setting": "[3]; 80° C., 24 h", "result": "Unchanged"}, {"measurement": "Enantiomer Excess of Compound", "setting": "[3]; 120° C., 0 h", "result": 95.9, "unit": "%"}, {"measurement": "Enantiomer Excess of Compound", "setting": "[3]; 120° C., 2 × 24 h", "result": "Unchanged"}, {"measurement": "Enantiomer Excess of Compound", "setting": "[3]; 120° C., 4 × 24 h", "result": "Unchanged"}, {"measurement": "Enantiomer Excess of Compound", "setting": "[3]; 120° C., 2 h", "result": "Unchanged"}, {"measurement": "Enantiomer Excess of Compound", "setting": "[3]; 120° C., 4 h", "result": "Unchanged"}, {"measurement": "Enantiomer Excess of Compound", "setting": "[3]; 120° C., 8 h", "result": "Unchanged"}, {"measurement": "Enantiomer Excess of Compound", "setting": "[3]; 120° C., 24 h", "result": "Unchanged"}, {"measurement": "Enantiomer Excess of Compound", "setting": "[3]; 160° C., 0 h", "result": 95.9, "unit": "%"}, {"measurement": "Enantiomer Excess of Compound", "setting": "[3]; 160° C., 8 h", "result": "Unchanged"}, {"measurement": "Stability in DMSO solutions (SFC purity)", "setting": "[3]; heating to 80° C., 120° C. and up to 160° C.", "result": "very stable"}, {"measurement": "Stability after co-incubation with human plasma", "setting": "[4]; 2 hours", "result": "very stable"}, {"measurement": "Recovery (% remaining)", "setting": "[4]; human plasma, 2 μM, 37° C., 120 min", "result": 100.4, "unit": "%"}, {"measurement": "recovery at 0 min, 2 μM", "setting": "[4]; human, plasma, pH 7.4, human plasma, 2 μM, 37° C., 0 min, read-out: Recovery (% remaining)", "result": 100, "unit": "%"}, {"measurement": "recovery at 10 min, 2 μM", "setting": "[4]; human, plasma, pH 7.4, human plasma, 2 μM, 37° C., 10 min, read-out: Recovery (% remaining)", "result": 100, "unit": "%"}, {"measurement": "recovery at 30 min, 2 μM", "setting": "[4]; human, plasma, pH 7.4, human plasma, 2 μM, 37° C., 30 min, read-out: Recovery (% remaining)", "result": 99.5, "unit": "%"}, {"measurement": "recovery at 60 min, 2 μM", "setting": "[4]; human, plasma, pH 7.4, human plasma, 2 μM, 37° C., 60 min, read-out: Recovery (% remaining)", "result": 99.4, "unit": "%"}, {"measurement": "Transformation of the atropisomer in vivo", "setting": "[5]; SD rats, IV and PO", "result": "no transformation was observed"}, {"measurement": "AUC0-inf", "setting": "[5]; [6]", "result": "15.03902 ± 1.0268", "unit": "µM·h"}, {"measurement": "Cl", "setting": "[5]; [6]", "result": "5.50 ± 0.36", "unit": "mL/min/kg"}, {"measurement": "Bioavailability", "setting": "[5]; male SD rats, PO 10 mpk vs IV 2 mpk", "result": 44.65, "unit": "%"}, {"measurement": "AUC0-inf", "setting": "[5]; male SD rats, PO 10 mpk, 10 mg/kg", "result": "32.68473 ± 13.43235", "unit": "µM·h"}, {"measurement": "C0", "setting": "[5]; [7]", "result": "11.5 ± 2.72", "unit": "µM"}, {"measurement": "half-life", "setting": "[5]; [7]", "result": "1.61 ± 0.11", "unit": "h"}, {"measurement": "MRT inf", "setting": "[5]; [7]", "result": "2.08 ± 0.08", "unit": "h"}, {"measurement": "Vd", "setting": "[5]; male, Sprague-Dawley, rat, plasma, iv, 2 mg/kg, male SD rats, IV 2 mpk, read-out: Vdss", "result": "0.69 ± 0.03", "unit": "L/kg"}, {"measurement": "Cmax", "setting": "[5]; [8]", "result": "7.76 ± 5.15", "unit": "µM"}, {"measurement": "half-life", "setting": "[5]; [8]", "result": "2.25 ± 0.02", "unit": "h"}, {"measurement": "MRT inf", "setting": "[5]; [8]", "result": "4.09 ± 0.87", "unit": "h"}, {"measurement": "Tmax", "setting": "[5]; male, Sprague-Dawley, rat, plasma, po, 10 mg/kg, male SD rats, PO 10 mpk, read-out: Tmax", "result": "3 ± 1.73", "unit": "h"}]}
